Active and inactive are the calls of the source. Rule as the data show it, for most assays here: actives have a measured EC50 and inactives only a lower limit.
Columns and labels:
H4 = assay: Luminescence Cell-Based Dose Response HTS to Identify Activators of 5'UTR Stem-Loop Driven Prion Protein mRNA Translation in H4 Neuroglioblastoma Cells. [Related pubchem assays: 1829 (Project Summary), 1814 (Primary HTS)]; type: functional; conditions: Homo sapiens
[1] = Luminescence Cell-Based Dose Response HTS to Identify Activators of Luciferase Translation or Activity in H4 […] Cells. [Related pubchem assays: 1829 (Project Summary), 1814 (Primary HTS)]; type: functional
[2] = Luminescence Cell-Based Dose Confirmation HTS to Identify Activators of 5'UTR Stem-Loop Driven Alpha-Synuclein mRNA Translation in H4 Neuroglioblastoma Cells. [Related pubchem assays: 1829 (Project Summary), 1814 (Primary HTS)]; type: functional
[3] = target: T1, Corticotropin-releasing factor receptor 2/Corticotropin-releasing factor-binding protein (Homo sapiens, UniProt P24387+Q13324); assay: activators of CRF receptor 2 with binding protein – uHTS hits, confirmation (AID 602473); type: functional; conditions: read-out: EC50_Mean
T1 sequence (Q13324 whole entry): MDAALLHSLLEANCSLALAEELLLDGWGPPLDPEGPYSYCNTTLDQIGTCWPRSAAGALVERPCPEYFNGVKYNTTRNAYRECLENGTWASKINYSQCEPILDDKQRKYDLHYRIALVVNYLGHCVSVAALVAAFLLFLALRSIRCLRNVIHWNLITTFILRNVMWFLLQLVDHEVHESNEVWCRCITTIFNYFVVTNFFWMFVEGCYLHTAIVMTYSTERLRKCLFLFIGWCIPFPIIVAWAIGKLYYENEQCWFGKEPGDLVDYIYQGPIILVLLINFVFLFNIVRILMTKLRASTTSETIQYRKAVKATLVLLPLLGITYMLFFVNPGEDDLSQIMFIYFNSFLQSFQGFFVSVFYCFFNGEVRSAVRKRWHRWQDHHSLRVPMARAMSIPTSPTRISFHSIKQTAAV
T1 sequence (P24387 whole entry): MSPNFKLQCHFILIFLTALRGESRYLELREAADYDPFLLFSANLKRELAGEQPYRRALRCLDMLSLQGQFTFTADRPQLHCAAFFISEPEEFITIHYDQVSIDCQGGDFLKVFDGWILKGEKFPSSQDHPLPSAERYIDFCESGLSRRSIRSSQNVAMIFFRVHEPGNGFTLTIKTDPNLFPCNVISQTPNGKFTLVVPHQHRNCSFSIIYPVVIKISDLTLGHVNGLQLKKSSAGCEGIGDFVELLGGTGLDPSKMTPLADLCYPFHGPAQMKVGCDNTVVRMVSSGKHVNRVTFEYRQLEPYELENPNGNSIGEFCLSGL

[4] = target: T1, Corticotropin-releasing factor receptor 2/Corticotropin-releasing factor-binding protein; assay: Dose Response confirmation of uHTS hits for small molecule antagonists of the CRF-binding protein and CRF-R2 receptor complex.; type: functional; conditions: read-out: IC50_Mean
[5] = target: T2, RNA-binding protein pos-1 (Caenorhabditis elegans, UniProt G5EF15); assay: inhibitors of POS-1/mex-3 RNA binding, dose response, biochemical, fluorescence polarization (AID 1964);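 also: purified POS-1 fused to maltose binding protein made in E. coli; potency of compounds blocking POS-1 binding to fluorescent RNA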
T2 sequence (G5EF15 whole entry): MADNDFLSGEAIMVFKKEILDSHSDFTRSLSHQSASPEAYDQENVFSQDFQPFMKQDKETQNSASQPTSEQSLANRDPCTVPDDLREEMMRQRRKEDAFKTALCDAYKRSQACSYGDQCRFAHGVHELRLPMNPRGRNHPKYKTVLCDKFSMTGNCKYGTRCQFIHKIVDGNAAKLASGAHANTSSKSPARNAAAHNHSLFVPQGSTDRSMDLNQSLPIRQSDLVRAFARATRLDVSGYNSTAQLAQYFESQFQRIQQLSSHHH

[6] = target: T3, Zinc finger protein mex-5 (Caenorhabditis elegans, UniProt Q9XUB2); assay: MEX-5/TCR-2 RNA interaction inhibitors, dose response, biochemical, C. elegans, fluorescence polarization (AID 1960)
T3 sequence (Q9XUB2 whole entry): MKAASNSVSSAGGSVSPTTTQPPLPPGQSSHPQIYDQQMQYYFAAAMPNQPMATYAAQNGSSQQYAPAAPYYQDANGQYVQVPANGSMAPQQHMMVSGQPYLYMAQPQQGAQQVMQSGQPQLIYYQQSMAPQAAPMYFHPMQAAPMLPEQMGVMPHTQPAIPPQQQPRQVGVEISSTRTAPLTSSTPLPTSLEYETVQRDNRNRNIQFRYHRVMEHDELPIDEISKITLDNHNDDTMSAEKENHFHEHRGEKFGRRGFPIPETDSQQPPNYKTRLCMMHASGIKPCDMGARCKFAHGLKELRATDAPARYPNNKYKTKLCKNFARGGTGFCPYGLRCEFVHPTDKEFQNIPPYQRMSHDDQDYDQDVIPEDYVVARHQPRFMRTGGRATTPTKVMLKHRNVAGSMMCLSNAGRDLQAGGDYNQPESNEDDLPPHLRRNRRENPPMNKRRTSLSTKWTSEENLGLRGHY

[7] = HEp-2 cell cytotoxicity, dose response, cytotoxicity control for RSV inhibitor project, HTS (AID 2410); type: functional; conditions: human respiratory syncytial virus
[8] = target: FAD-linked sulfhydryl oxidase ALR (Homo sapiens, UniProt P55789); assay: inhibitors of human ALR sulfhydryl oxidase, dose response, biochemical, H2O2 detection, luminescence, cherry-pick (AID 493248)
Chain of FAD-linked sulfhydryl oxidase ALR (P55789 whole entry): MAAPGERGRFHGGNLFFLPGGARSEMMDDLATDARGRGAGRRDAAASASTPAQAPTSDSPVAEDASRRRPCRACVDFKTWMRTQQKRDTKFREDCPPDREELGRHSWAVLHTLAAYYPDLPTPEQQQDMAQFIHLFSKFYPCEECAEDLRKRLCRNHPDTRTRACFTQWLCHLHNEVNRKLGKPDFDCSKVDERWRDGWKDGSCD

Compound | EC50 (H4) | EC50 [1] | EC50 [3] | IC50 [4] | also measured
O=C(C[n+]1cc(-c2ccc(F)cc2)n2c1CCC2)N1c2ccccc2Sc2ccccc21 | 9.69 µM (active) | 1.06 µM (active) |  |  | EC50 [2]: 7.4 µM (active)
CCN(CC)S(=O)(=O)c1ccc2c(c1)N(CC(=O)NCc1ccco1)C(=O)CO2 |  |  | > 53 µM (inactive) | > 47.1 µM (inactive) | 
COc1ccc(C(=O)Nc2ccc3nc4n(c(=O)c3c2)CCCCC4)cc1OC |  |  | > 53 µM (inactive) | > 47.1 µM (inactive) | 
CCC(=O)Nc1cc(C)c(NC(=O)CCc2ccccc2)cn1 |  |  |  |  | EC50 [5]: 24 µM (active); EC50 [6]: 26 µM (inconclusive)
Clc1ccc(-c2nnc(NCc3ccccc3)c3ccccc23)cc1 |  |  | > 53 µM (inactive) | > 47.1 µM (inactive) | 
Cc1ccc(N(C(=O)Cn2nnc(-c3ccccc3F)n2)C(C(=O)NC2CCCC2)c2ccncc2)cc1 (centres undefined) |  |  | > 53 µM (inactive) | > 47.1 µM (inactive) | 
O=Nc1c(-c2ccccc2)cc2ccccn12 | 27.4 µM (active) | 12.1 µM (active) |  |  | EC50 [2]: 13.6 µM (active)
CCN(CC(=O)Nc1c(F)cccc1F)C(=O)c1ccc(S(=O)(=O)N2CCC(C)CC2)cc1 |  |  | > 53 µM (inactive) | > 47.1 µM (inactive) | 
Cc1ccc(-n2nnnc2SCC(=O)Nc2sc(C)c(C)c2C#N)cc1C | > 120 µM (not active) | 15.6 µM (active) |  |  | EC50 [2]: 15.9 µM (active)
O=C(NCc1ccccn1)C1Nc2ccc(OC(F)(F)F)cc2C2C=CCC12 (centres undefined) |  |  |  |  | EC50 [5]: > 300 µM (not active); EC50 [6]: > 300 µM (not active)
Cc1cccn2c(=O)c3cc(C(=O)NCc4ccco4)c(=N)n(C(C)C)c3nc12 |  |  |  |  | EC50 [5]: 40.5 µM (active); EC50 [6]: 45.5 µM (active)
COc1ccc2sc(NC(=O)NC(=O)c3c(Cl)cccc3Cl)nc2c1 |  |  |  |  | CC50 [7]: 17.3 µM (active)
O=S(=O)(NC(=S)NC1CCCCC1)c1ccc(Br)cc1 |  |  | > 53 µM (inactive) | > 47.1 µM (inactive) | 
O=C(O)C1CCN(C(=O)OCc2ccccc2)CC1 | 6.56 µM (active) | 87.1 µM (active) |  |  | EC50 [2]: 0.602 µM (active)
NC(=O)NC1CCCc2c1[nH]c1ccc(Cl)cc21 (centres undefined) |  |  |  |  | CC50 [7]: 18 µM (active)
Cc1cccn2c(=O)c(C=O)c(Nc3ccc(S(N)(=O)=O)cc3)nc12 | > 120 µM (not active) | 26.4 µM (active) |  |  | EC50 [2]: 14.8 µM (active)
CN(Cc1cccc(Cl)c1)C(=O)C1CCC(=O)N(C2CC2)C1 (centres undefined) |  |  | > 53 µM (inactive) | > 47.1 µM (inactive) | 
CC(C)(C)C(=O)N1CCN(c2nc3ccc(Cl)cc3s2)CC1 | 15.2 µM (active) | 0.244 µM (active) |  |  | EC50 [2]: 0.369 µM (active)
O=C(Nc1ccc(Cl)cn1)c1cccc(S(=O)(=O)N2CCCC2)c1 |  |  | > 53 µM (inactive) | > 47.1 µM (inactive) | 
CC(C)COc1ccc(CN=C(S)Nc2ccccc2)cc1Cl |  |  | > 53 µM (inactive) | > 47.1 µM (inactive) | 
O=C(Nc1nc(-c2ccccc2)ns1)c1cccs1 | > 120 µM (not active) | 1.32 µM (active) |  |  | AC50 [8]: 81 µM (active)
ClCc1nc2ccccc2n1Cc1ccccc1 |  |  |  |  | EC50 [5]: 2.24 µM (inconclusive); EC50 [6]: 3.93 µM (inconclusive)

— ChEMBL document CHEMBL1201862, “PubChem BioAssay data set” (2004)
